Results as given in patent publication US12077503B2, “Substituted cyclic amides and their use as herbicides” (FMC CORPORATION, priority 2015, dated 2024).

How the values were obtained:
Type in all cases: in vivo
[1] = test system: ivy-leaved morning glory (Ipomoea hederacea); assay: Test G Pre-Emergence Protocol; conditions: Ipomoea, pre-emergence, 312 h, evaluated after 13 days; for pest or weed control at 15.625 g/ha: 15.625 g ai/ha, read-out: Morning-glory, Ivy-leaved damage rating (100=total damage to plant; 0=no damage to plant); for pest or weed control at 62.5 g/ha: 62.5 g ai/ha, 100=total damage to plant, 0=no damage to plant, read-out: plant damage rating, Morningglory, Ivy-leaved; for pest or weed control at 250 g/ha: 250 g ai/ha, read-out: Morningglory, Ivy-leaved damage rating (100=total damage to plant; 0=no damage to plant)
Method in brief: (§1)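 Herbicidal effect was rated 13 days post-application on a scale where 100 equals total damage. Spraying took place the day after sowing, using 15.625, 62.5 or 250 g/ha of compound in a 50:50 acetone/water solution with 0.5% Tween 20.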

[2] = test system: redroot pigweed (Amaranthus retroflexus); assay: Test G Pre-Emergence Protocol; conditions: Amaranthus retroflexus, pre-emergence, 312 h, evaluated after 13 days; for pest or weed control at 15.625 g/ha: 15.625 g ai/ha; for pest or weed control at 15.625 g/ha / pest or weed control at 250 g/ha: read-out: Pigweed, Redroot damage rating (100=total damage to plant; 0=no damage to plant); for pest or weed control at 62.5 g/ha: 62.5 g ai/ha, 100=total damage to plant, 0=no damage to plant, read-out: plant damage rating, Pigweed, Redroot; for pest or weed control at 250 g/ha: 250 g ai/ha
Method in brief: as §1

[3] = test system: barnyardgrass (Echinochloa crus-galli); assay: Test G Pre-Emergence Protocol; conditions: Echinochloa crus-galli, pre-emergence, 312 h, evaluated after 13 days; for pest or weed control at 15.625 g/ha: 15.625 g ai/ha, read-out: Barnyard grass damage rating (100=total damage to plant; 0=no damage to plant); for pest or weed control at 62.5 g/ha: 62.5 g ai/ha, 100=total damage to plant, 0=no damage to plant, read-out: plant damage rating, Barnyardgrass; for pest or weed control at 250 g/ha: 250 g ai/ha, read-out: Barnyardgrass damage rating (100=total damage to plant; 0=no damage to plant)
Method in brief: as §1

corn (Zea mays) [4] = assay: Test G Pre-Emergence Protocol; conditions: Zea mays, pre-emergence, 312 h, evaluated after 13 days; for plant injury at 15.625 g/ha: 15.625 g ai/ha; for plant injury at 15.625 g/ha / plant injury at 250 g/ha: read-out: Corn damage rating (100=total damage to plant; 0=no damage to plant); for plant injury at 62.5 g/ha: 62.5 g ai/ha, 100=total damage to plant, 0=no damage to plant, read-out: plant damage rating, Corn; for plant injury at 250 g/ha: 250 g ai/ha
Method in brief: as §1

[5] = test system: velvetleaf (Abutilon theophrasti); assay: Test G Pre-Emergence Protocol; conditions: Abutilon theophrasti, pre-emergence, 312 h, evaluated after 13 days; for pest or weed control at 15.625 g/ha: 15.625 g ai/ha; for pest or weed control at 15.625 g/ha / pest or weed control at 250 g/ha: read-out: Velvetleaf damage rating (100=total damage to plant; 0=no damage to plant); for pest or weed control at 62.5 g/ha: 62.5 g ai/ha, 100=total damage to plant, 0=no damage to plant, read-out: plant damage rating, Velvetleaf; for pest or weed control at 250 g/ha: 250 g ai/ha
Method in brief: as §1

[6] = test system: giant foxtail (Setaria faberi); assay: Test G Pre-Emergence Protocol; conditions: Setaria faberi, pre-emergence, 312 h, evaluated after 13 days; for pest or weed control at 15.625 g/ha: 15.625 g ai/ha; for pest or weed control at 15.625 g/ha / pest or weed control at 250 g/ha: read-out: Foxtail, Giant damage rating (100=total damage to plant; 0=no damage to plant); for pest or weed control at 62.5 g/ha: 62.5 g ai/ha, 100=total damage to plant, 0=no damage to plant, read-out: plant damage rating, Foxtail, Giant; for pest or weed control at 250 g/ha: 250 g ai/ha
Method in brief: as §1

[7] = test system: ivy-leaved morning glory (Ipomoea hederacea); assay: Test G Post-Emergence Protocol; conditions: Ipomoea, post-emergence, 312 h; for pest or weed control at 15.625 g/ha: 15.625 g ai/ha, evaluated after 13 days (100=total damage to plant; 0=no damage to plant), read-out: Morningglory, Ivy-leaved damage rating; for pest or weed control at 62.5 g/ha: 62.5 g ai/ha, read-out: Morningglory, Ivy-leaved damage rating (100=total damage to plant; 0=no damage to plant); for pest or weed control at 62.5 g/ha / pest or weed control at 250 g/ha: evaluated after 13 days; for pest or weed control at 250 g/ha: 250 g ai/ha, read-out: damage to plant, Morningglory, Ivy-leaved (100=total damage to plant; 0=no damage to plant)
Method in brief: (§2)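 A glasshouse post-emergence test: 8-day-old plants sprayed at 15.625, 62.5 or 250 g/ha, then grown at 24/16 °C day/night with 14 h light and 65% humidity. Damage rated 13 days later, 0–100.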

[8] = test system: redroot pigweed (Amaranthus retroflexus); assay: Test G Post-Emergence Protocol; conditions: Amaranthus retroflexus, post-emergence, 312 h; for pest or weed control at 15.625 g/ha: 15.625 g ai/ha, evaluated after 13 days (100=total damage to plant; 0=no damage to plant), read-out: Pigweed, Redroot damage rating; for pest or weed control at 62.5 g/ha: 62.5 g ai/ha, read-out: Pigweed, Redroot damage rating (100=total damage to plant; 0=no damage to plant); for pest or weed control at 62.5 g/ha / pest or weed control at 250 g/ha: evaluated after 13 days; for pest or weed control at 250 g/ha: 250 g ai/ha, read-out: damage to plant, Pigweed, Redroot (100=total damage to plant; 0=no damage to plant)
Method in brief: as §2

[9] = test system: barnyardgrass (Echinochloa crus-galli); assay: Test G Post-Emergence Protocol; conditions: Echinochloa crus-galli, post-emergence, 312 h; for pest or weed control at 15.625 g/ha: 15.625 g ai/ha, evaluated after 13 days (100=total damage to plant; 0=no damage to plant), read-out: Barnyardgrass damage rating; for pest or weed control at 62.5 g/ha: 62.5 g ai/ha, read-out: Barnyardgrass damage rating (100=total damage to plant; 0=no damage to plant); for pest or weed control at 62.5 g/ha / pest or weed control at 250 g/ha: evaluated after 13 days; for pest or weed control at 250 g/ha: 250 g ai/ha, read-out: damage to plant, Barnyardgrass (100=total damage to plant; 0=no damage to plant)
Method in brief: as §2

corn (Zea mays) [10] = assay: Test G Post-Emergence Protocol; conditions: Zea mays, post-emergence, 312 h; for plant injury at 15.625 g/ha: 15.625 g ai/ha, evaluated after 13 days (100=total damage to plant; 0=no damage to plant), read-out: Corn damage rating; for plant injury at 62.5 g/ha: 62.5 g ai/ha, read-out: Corn damage rating (100=total damage to plant; 0=no damage to plant); for plant injury at 62.5 g/ha / plant injury at 250 g/ha: evaluated after 13 days; for plant injury at 250 g/ha: 250 g ai/ha, read-out: damage to plant, Corn (100=total damage to plant; 0=no damage to plant)
Method in brief: as §2

[11] = test system: velvetleaf (Abutilon theophrasti); assay: Test G Post-Emergence Protocol; conditions: Abutilon theophrasti, post-emergence, 312 h; for pest or weed control at 15.625 g/ha: 15.625 g ai/ha, evaluated after 13 days (100=total damage to plant; 0=no damage to plant), read-out: Velvetleaf damage rating; for pest or weed control at 62.5 g/ha: 62.5 g ai/ha, read-out: Velvetleaf damage rating (100=total damage to plant; 0=no damage to plant); for pest or weed control at 62.5 g/ha / pest or weed control at 250 g/ha: evaluated after 13 days; for pest or weed control at 250 g/ha: 250 g ai/ha, read-out: damage to plant, Velvetleaf (100=total damage to plant; 0=no damage to plant)
Method in brief: as §2

[12] = test system: giant foxtail (Setaria faberi); assay: Test G Post-Emergence Protocol; conditions: Setaria faberi, post-emergence, 312 h; for pest or weed control at 15.625 g/ha: 15.625 g ai/ha, evaluated after 13 days (100=total damage to plant; 0=no damage to plant), read-out: Foxtail, Giant damage rating; for pest or weed control at 62.5 g/ha: 62.5 g ai/ha, read-out: Foxtail, Giant damage rating (100=total damage to plant; 0=no damage to plant); for pest or weed control at 62.5 g/ha / pest or weed control at 250 g/ha: evaluated after 13 days; for pest or weed control at 250 g/ha: 250 g ai/ha, read-out: damage to plant, Foxtail, Giant (100=total damage to plant; 0=no damage to plant)
Method in brief: as §2

| Compound | pest or weed control at 15.625 g/ha [1] | pest or weed control at 62.5 g/ha [1] | pest or weed control at 250 g/ha [1] | pest or weed control at 62.5 g/ha [2] | pest or weed control at 250 g/ha [2] | pest or weed control at 15.625 g/ha [3] | pest or weed control at 62.5 g/ha [3] | pest or weed control at 250 g/ha [3] | plant injury at 15.625 g/ha (corn (Zea mays) [4]) | plant injury at 62.5 g/ha (corn (Zea mays) [4]) | plant injury at 250 g/ha (corn (Zea mays) [4]) | pest or weed control at 62.5 g/ha [5] | pest or weed control at 250 g/ha [5] | pest or weed control at 15.625 g/ha [6] | pest or weed control at 62.5 g/ha [6] | pest or weed control at 250 g/ha [6] | pest or weed control at 15.625 g/ha [7] | pest or weed control at 62.5 g/ha [7] | pest or weed control at 250 g/ha [7] | pest or weed control at 15.625 g/ha [8] | further results |
| --- | --- | --- | --- | --- | --- | --- | --- | --- | --- | --- | --- | --- | --- | --- | --- | --- | --- | --- | --- | --- | --- |
| CN1C[C@H](c2ccc(C(F)(F)F)cc2)[C@@H](C(=O)Nc2ccc(C(F)(F)F)c(F)c2F)C1=O (racemic) [Compound 1451] | 0% | 0% | 0% | 0% | 0% | 0% | 0% | 0% | 0% | 0% | 0% | 0% | 0% | 0% | 0% | 0% | 0% | 0% | 0% | 0% | pest or weed control at 15.625 g/ha [2]: 0%; pest or weed control at 15.625 g/ha [5]: 0%; pest or weed control at 62.5 g/ha [8]: 0%; pest or weed control at 250 g/ha [8]: 0%; pest or weed control at 15.625 g/ha [9]: 0%; pest or weed control at 62.5 g/ha [9]: 0%; pest or weed control at 250 g/ha [9]: 0%; plant injury at 15.625 g/ha (corn (Zea mays) [10]): 0%; plant injury at 62.5 g/ha (corn (Zea mays) [10]): 0%; plant injury at 250 g/ha (corn (Zea mays) [10]): 0%; pest or weed control at 15.625 g/ha [11]: 0%; pest or weed control at 62.5 g/ha [11]: 0%; pest or weed control at 250 g/ha [11]: 0%; pest or weed control at 15.625 g/ha [12]: 0%; pest or weed control at 62.5 g/ha [12]: 0%; pest or weed control at 250 g/ha [12]: 0% |
| COc1ccc(OC)c([C@H]2CN(C)C(=O)[C@@H]2C(=O)Nc2ccccc2F)c1 (racemic) [Compound 1453] | 0% | 0% | 0% | 0% | 0% | 20% | 40% | 90% | 0% | 0% | 0% | 0% | 20% | 40% | 60% | 90% | 0% | 0% | 10% | 0% | pest or weed control at 15.625 g/ha [2]: 0%; pest or weed control at 62.5 g/ha [8]: 0%; pest or weed control at 250 g/ha [8]: 0%; pest or weed control at 15.625 g/ha [9]: 0%; pest or weed control at 62.5 g/ha [9]: 10%; pest or weed control at 250 g/ha [9]: 10%; plant injury at 15.625 g/ha (corn (Zea mays) [10]): 10%; plant injury at 62.5 g/ha (corn (Zea mays) [10]): 10%; plant injury at 250 g/ha (corn (Zea mays) [10]): 10%; pest or weed control at 15.625 g/ha [11]: 0%; pest or weed control at 62.5 g/ha [11]: 0%; pest or weed control at 250 g/ha [11]: 0%; pest or weed control at 15.625 g/ha [12]: 10%; pest or weed control at 62.5 g/ha [12]: 50%; pest or weed control at 250 g/ha [12]: 50% |
| COc1ccc([C@H]2CN(C)C(=O)[C@@H]2C(=O)Nc2ccccc2F)c(C)c1 (racemic) [Compound 1455] | 0% | 0% | 20% | 0% | 0% | 30% | 70% | 90% | 0% | 0% | 10% | 30% | 0% | 30% | 70% | 90% | 0% | 0% | 20% | 0% | pest or weed control at 15.625 g/ha [5]: 0%; pest or weed control at 62.5 g/ha [8]: 0%; pest or weed control at 250 g/ha [8]: 40%; pest or weed control at 15.625 g/ha [9]: 0%; pest or weed control at 62.5 g/ha [9]: 0%; pest or weed control at 250 g/ha [9]: 20%; plant injury at 15.625 g/ha (corn (Zea mays) [10]): 10%; plant injury at 62.5 g/ha (corn (Zea mays) [10]): 10%; plant injury at 250 g/ha (corn (Zea mays) [10]): 20%; pest or weed control at 15.625 g/ha [11]: 0%; pest or weed control at 62.5 g/ha [11]: 0%; pest or weed control at 250 g/ha [11]: 10%; pest or weed control at 15.625 g/ha [12]: 10%; pest or weed control at 62.5 g/ha [12]: 10%; pest or weed control at 250 g/ha [12]: 50% |
